# In the Kinase Knowledgebase extract (Sharma et al. 2016):
# Target: CDK2 (human) (UniProt P24941)
# Assay: Enzyme Assay
row,IC50 [µM],Structure (SMILES)
1,< 100,Cc1c(N[C@H]2CC[C@H](N)CC2)nc2ccnn2c1Nc1ccc(-c2ccccc2F)cc1
2,< 100,Cc1c(N[C@H]2CC[C@H](N)CC2)nc2ccnn2c1Nc1ccc(OCc2ccccc2Cl)cc1
3,< 100,COc1ccc(Nc2c(CCCO)c(N[C@H]3CC[C@H](N)CC3)nc3ccnn23)cc1OC
4,< 100,Cc1c(N[C@H]2CC[C@H](N)CC2)nc2ccnn2c1Nc1ccc(-c2ccccc2)cc1
5,< 100,CCc1c(NC2CCCNC2)nc2ccnn2c1Nc1ccc(Oc2ccc(C)cc2)cc1 (stereo not given)
6,< 100,CCOc1ccc(Nc2c(C)c(N[C@H]3CC[C@H](N)CC3)nc3c(CC)cnn23)cc1
7,< 100,CCc1c(N[C@H]2CC[C@H](N)CC2)nc2ccnn2c1Nc1ccc(Oc2ccc(C)cc2)cc1
8,< 100,Cc1c(N[C@H]2CC[C@H](N)CC2)nc2ccnn2c1Nc1ccc(OC2CCNC2)cc1 (stereo not given in full)
9,< 100,Cc1c(N[C@H]2CC[C@H](N)CC2)nc2ccnn2c1Nc1ccc(OC(C)C)cc1

# Continued, molecule first:
row,Structure (SMILES),IC50 [µM]
1,CCc1c(N[C@H]2CC[C@H](N)CC2)nc2ccnn2c1Nc1ccccc1OC,< 100
2,CCc1c(N[C@H]2CC[C@H](N)CC2)nc2ccnn2c1Nc1ccc(OCc2ccccc2)cc1,< 100
3,Cc1c(N[C@H]2CC[C@H](N)CC2)nc2ccnn2c1Nc1ccc(OCC2CCCO2)cc1 (stereo not given in full),< 100
4,Cc1cscc1-c1ccc(Nc2c(C)c(N[C@H]3CC[C@H](N)CC3)nc3ccnn23)cc1,< 100
5,Cc1c(N[C@H]2CC[C@H](N)CC2)nc2ccnn2c1Nc1ccc(OC2CCCC2)cc1,< 100
6,CCOc1ccc(Nc2c(C)c(N[C@H]3CC[C@H](N)CC3)nc3c(C#N)cnn23)cc1,< 100
